Series [1] has as its system carrageenin-induced paw edema. Briefly: Inhibitory actions on carrageenin-induced paw edema in rats. The following applies: Rattus norvegicus, po, 60 min before carrageenin, male Wistar rats, 3 hours after induction, vs control group, read-out: Inhibition rate; for inhibition in vivo at 30 mg/kg: 30 mg/kg orally; for inhibition in vivo at 15 mg/kg: 15 mg/kg orally. Format: in vivo. Here is the method:
Using, as test animals, male rats of Wistar strain each weighing approximately 150g, 0.1 ml of 1% x-carrageenin was subcutaneously injected into the paw of each rat to induce the reaction. Since then, the volume of paw edema was measured with the lapse of time. Each compound indicated in the following Table was orally administered to the rats 60 minutes before the induction of the reaction. As shown in the following Table, the results were expressed in terms of inhibition rate in comparison with those in control group 3 hours after the induction of the reaction.
(The carrageenan paw model is a standard test of acute inflammation.)

In the next series the test system is collagen aggregation. Briefly: Inhibitory actions on blood platelet aggregation induced by collagen (Born's nephelometry, platelet rich plasma). Type of series: cell-based. The following applies: Oryctolagus cuniculus, collagen (10µg/ml), rabbit PRP, read-out: Inhibiting rate; for inhibition at 10 µM: final concentration 10 μM; for inhibition at 30 µM: final concentration 30 μM. Here is the method: (§1) Nine (9) ml of blood were drawn from the concha artery of a rabbit into a syringe containing therein 1 ml of a 3.2% solution of sodium citrate, after which the whole mass was centrifuged at 1100 rpm for 10 minutes to collect platelet rich plasma (PRP). The blood from which the PRP had been collected was again centrifuged at 3000 rpm for 5 minutes to collect platelet poor plasma (PPP). The PRP was adjusted to have 500,000/µl of platelets (thrombocytes) by the use of the PPP.
(§2) Four hundred and forty-five (445)µl of the thus adjusted PRP were introduced into a cuvette, warmed to 37° C for 5 minutes, incorporated with 5µl of a solution of each of the test compounds, further warmed for two minutes and then incorporated with 50µl of collagen (10µg/ml) or 50µl of arachidonic acid (350µM) thereby to induce platelet aggregation. The platelet aggregation was measured in accordance with the Born's nephelometry by the use of an Aggregometer produced by Sysmex Co.

For series [2], the system named is writhing induced by acetic acid. Briefly: Inhibitory actions on the writhing induced by acetic acid in mice. Format: in vivo. The following applies: 30 mg/kg orally, 30 min before 0.6% acetic acid; male ddY mice; number of writhing vs control group. As to the method:
As test animals, there were provided groups consisting of 7-9 male ddY strain mice weighing 20-24g. Each of the compounds indicated in the following table was orally administered to the mice of one group. Thirty minutes later, 0.6% acetic acid was abdominally administered at a dose of 0.1ml/10g. Counting of the number of writhing was started 5 minutes later than the administration of the acetic acid and continued for 10 minutes. The inhibition rates were determined by comparing the number of writhing of the test group with that of the control group and were shown in the following Table.
(In writhing tests, fewer writhes than in controls are read as antinociception.)

In the next series the test system is gastric mucous damage. Put plainly: Gastric mucous damage test in rats. Type of series: in vivo. The following applies: 10 mg/kg orally after fasting for 18 hours; male Wistar rats; stomachs observed 3.5 hours later. As to the method: Using, as test animals, male rats of Wistar strain each weighing approximately 160g, the compounds of Examples 6 and 40 as well as indomethacin were each orally administered to the rats at the dose indicated in the following Table after their fasting for 18 hours. Three and a half (3.5) hours later, the rats were dissected to remove the stomachs therefrom. 10ml of a 70% ethanol were injected into the stomachs to fix them, and the stomachs were cut and washed with water and then visually observed to find whether ulcers were formed therein.

Series [3] has as its system arachidonic acid aggregation. Briefly: Inhibitory actions on blood platelet aggregation induced by arachidonic acid (Born's nephelometry, platelet rich plasma). Format: cell-based. The following applies: arachidonic acid (350µM), rabbit PRP; for inhibition at 3 µM / inhibition at 10 µM / inhibition at 30 µM: Oryctolagus cuniculus, Platelet, read-out: Inhibiting rate. Here is the method: as §1, §2

On to `O=C(Nc1ccccc1)C1CCn2c1cc(-c1ccc(Cl)cc1)c2-c1ccc(Cl)cc1` (racemic) [Example 7, N-phenyl-5,6-bis(p-chlorophenyl)-1,2-dihydro-3H-pyrrolo[1,2-a]pyrrole-1-carboxylic acid amide], for which the inhibition in vivo at 30 mg/kg in series [1] was 37.4%. Moreover, the inhibition at 10 µM in the series with collagen aggregation is 78%.

In series [2], `O=C(O)C1CCn2c1cc(-c1ccc(Cl)cc1)c2-c1ccc(Cl)cc1` (stereo not drawn) [Example 6, 5,6-bis(p-chlorophenyl)-1,2-dihydro-3H-pyrrolo[1,2-a]pyrrole-1-carboxylic acid] gave an Inhibition rate of 81.3%. In addition, the inhibition in vivo at 30 mg/kg in series [1] was 52.3%.

Turning to `COc1ccc2c(c1)c(CC(=O)O)c(C)n2C(=O)c1ccc(Cl)cc1` [Indomethacin], the Ulcer formation with gastric mucous damage was 7/7.

As to `O=C(Nc1ccccn1)C1CCn2c1cc(-c1ccc(Cl)cc1)c2-c1ccc(Cl)cc1` (racemic) [Example 46], the inhibition in vivo at 30 mg/kg in series [1] stood at 39.4%. Further, in the series with collagen aggregation, the inhibition at 10 µM turned out to be 64%.

With `O=C(NCCCN1CCOCC1)C1CCn2c1cc(-c1ccc(Cl)cc1)c2-c1ccc(Cl)cc1` (racemic) [Example 57], in series [1], the inhibition in vivo at 30 mg/kg is 31.9%. In the series with collagen aggregation, the inhibition at 10 µM was found to be 89.6%.

Consider `O=C(O)c1c(-c2ccc(Cl)cc2)c(-c2ccc(Cl)cc2)n2c1C(C(=O)O)CC2` (stereo not drawn) [Example 3, 5,6-bis(p-chlorophenyl)-1,2-dihydro-3H-pyrrolo[1,2-a]-pyrrole-1,7-dicarboxylic acid], for which the Inhibition rate in series [2] came out at 71.5%. Further, the inhibition in vivo at 30 mg/kg in series [1] came to 44.7%.

Regarding `O=C(O)c1c(-c2ccc(F)cc2)c(-c2ccc(F)cc2)n2c1C(C(=O)O)CC2` (racemic) [Example 17], the Inhibition rate in series [2] was 78.4%. For the same molecule, the inhibition in vivo at 30 mg/kg in series [1] came out at 42.9%.

For `O=C(C1CCn2c1cc(-c1ccc(Cl)cc1)c2-c1ccc(Cl)cc1)N1CCOCC1` (racemic) [Example 61], in series [3] (final concentration 3 µM), the inhibition at 3 µM stood at 10.1%. The inhibition at 10 µM in series [3] (final concentration 10 µM) came to 89.4%. Besides, in series [3] (final concentration 30 µM), the inhibition at 30 µM is 91.4%.

As to `COc1ccc(-c2c(-c3ccc(Cl)cc3)cc3n2CCC3C(=O)O)cc1` (racemic) [Example 40], the Inhibition rate in series [2] worked out at 87.3%. The inhibition in vivo at 30 mg/kg in series [1] turned out to be 48.2%. For the same molecule, in the series with collagen aggregation, the inhibition at 30 µM stood at 63.8%.

Take `O=C(O)C1CCn2c1cc(-c1ccc(F)cc1)c2-c1ccc(F)cc1` (racemic) [Example 38]: the inhibition in vivo at 30 mg/kg in series [1] came to 47.9%.

As for `COc1ccc(-c2cc3n(c2-c2ccc(OC)cc2)CCC3C(=O)O)cc1` (racemic) [Example 39], in series [1], the inhibition in vivo at 15 mg/kg was determined as 34.7%. For the same molecule, the inhibition at 30 µM in the series with collagen aggregation worked out at 61.7%.

In the case of `O=C(NCc1ccccc1)C1CCn2c1cc(-c1ccc(Cl)cc1)c2-c1ccc(Cl)cc1` (racemic) [Example 48], in series [3] (final concentration 3 µM), the inhibition at 3 µM stood at 14.3%. In addition, the inhibition at 10 µM in series [3] (final concentration 10 µM) is 86.5%. For the same molecule, the inhibition at 30 µM in series [3] (final concentration 30 µM) stood at 91%.

Take `Cc1ccc(-c2cc3n(c2-c2ccc(C)cc2)CCC3C(=O)O)cc1` (racemic) [Example 37]: in series [2], the Inhibition rate is listed as 45.4%. Further, the inhibition in vivo at 15 mg/kg in series [1] turned out to be 27.8%. For the same molecule, the inhibition at 30 µM with collagen aggregation came to 53.7%.

Consider `O=C(Nc1ccc(Cl)cc1)C1CCn2c1cc(-c1ccc(Cl)cc1)c2-c1ccc(Cl)cc1` (racemic) [Example 41], for which the inhibition at 3 µM in series [3] (final concentration 3 µM) was 83.4%. The inhibition at 10 µM in series [3] (final concentration 10 µM) came to 88.7%. Moreover, in series [3] (final concentration 30 µM), the inhibition at 30 µM was 89.4%.

With `O=C(NC1CCCCC1)C1CCn2c1cc(-c1ccc(Cl)cc1)c2-c1ccc(Cl)cc1` (racemic) [Example 54], the inhibition at 3 µM in series [3] (final concentration 3 µM) turned out to be 93.5%. Moreover, the inhibition at 10 µM was 93.5% in series [3] (final concentration 10 µM) and 79.5% with collagen aggregation. The inhibition at 30 µM in series [3] (final concentration 30 µM) amounted to 91.9%. Besides, the inhibition in vivo at 30 mg/kg in series [1] turned out to be 40.2%.

`CC(C)OC(=O)C1CCn2c(-c3ccc(Cl)cc3)c(-c3ccc(Cl)cc3)c(C(=O)O)c21` (racemic) [Example 4, 5,6-bis(p-chlorophenyl)-1,2-dihydro-3H-pyrrolo[1,2-a]pyrrole-1-isopropyl carboxylate ester-7-carboxylic acid] yielded an Inhibition rate in series [2] of 56.4%. Also, the inhibition in vivo at 30 mg/kg in series [1] was found to be 31.2%.

For `CCCCNC(=O)C1CCn2c1cc(-c1ccc(Cl)cc1)c2-c1ccc(Cl)cc1` (racemic) [Example 8, N-bytyl-5,6-bis(p-chlorophenyl)-1,2-dihydro-3H-pyrrolo[1,2-a]pyrrole-1-carboxylic acid amide], the figures for the Inhibiting rate in series [3] (final concentration 3 µM), in series [3] (final concentration 10 µM) and in series [3] (final concentration 30 µM) were 92.5%, 90.2% and 92.5%, respectively.

In turn, `CC(C)OC(=O)C1CCn2c(-c3ccc(F)cc3)c(-c3ccc(F)cc3)c(C(=O)O)c21` (racemic) [Example 25] registered an Inhibition rate in series [2] of 49.1%. Besides, the inhibition in vivo at 30 mg/kg in series [1] stood at 30.1%.

Regarding `CN1CCN(NC(=O)C2CCn3c2cc(-c2ccc(Cl)cc2)c3-c2ccc(Cl)cc2)CC1` (racemic) [Example 59], the inhibition in vivo at 30 mg/kg in series [1] came out at 30.5%. Besides, the inhibition at 10 µM with collagen aggregation is 83.4%.

The values are drawn from patent EP0330283A1, “Novel 5,6-diphenyl-1,2-dihydro-3H-pyrrolo[1,2-a]pyrrole-1-carboxylic acid derivatives” (HISAMITSU PHARMACEUTICAL CO., INC., priority 1988, dated 1989).
